In paper PMC5369524 (Chemical Science, 2016):

How the values were obtained:
[1] = target: C-terminal ZF2 of HIV1NCp7 (Human immunodeficiency virus type 1 group M subtype B, UniProt P12493); settings: figures in parentheses of Table 1
[2] = target: full NCp7 peptide (Human immunodeficiency virus type 1 group M subtype B, UniProt P12493)
[3] = target: full NCp7 zinc finger peptide (Human immunodeficiency virus type 1 group M subtype B, UniProt P12493); settings: positive band centered at 210–220 nm
[4] = tested on: HIV; settings: ref [55]; cited from earlier work

Row | SMILES | K a, association with C-terminal ZF2 of HIV1NCp7 [1] | K a, association with full NCp7 peptide ([2]; figures in bold parentheses of Table 1) | K a, association constant with full NCp7 peptide ([2]; fluorescence quenching) | Effect on CD spectrum / tertiary structure of NCp7 [3] | Anti-HIV activity [4]
1 | CCn1cnc2c(=O)[nH]c(N)nc21.NCCNCCN.[Pt+2] [[Pt(dien)(9-EtGua)]^2+] | (13.10 ± 0.94) ×10^3 M^–1 | (20 ± 0.08) ×10^3 M^–1 | 2.0 × 10^4 M^–1 | no major disruption of the peptide | –
2 | CCn1cnc2c(=O)[nH]c(N)nc21.N.[Cl][Pt+].c1ccc2ncccc2c1 [SP-4-2-[PtCl(NH3)(9-EtGua)(quinoline)]^+] | – | – | – | – | modest anti-HIV activity
